Structures are written as SMILES.

The results in this text go back to patent publication US20020115640A1, “Farnesyltransferase inhibitors” (priority 2000, published 2002).

This assay deals with T1, farnesyltransferase (Rattus norvegicus, UniProt Q02293+Q04631).
T1 construct: The enzyme can be purified according to Cell, 62: 81-88 (1990), utilizing steps one, two, and three; from tissue; host or cells: rat brain
T1 sequence (Q02293 whole entry, one chain of several): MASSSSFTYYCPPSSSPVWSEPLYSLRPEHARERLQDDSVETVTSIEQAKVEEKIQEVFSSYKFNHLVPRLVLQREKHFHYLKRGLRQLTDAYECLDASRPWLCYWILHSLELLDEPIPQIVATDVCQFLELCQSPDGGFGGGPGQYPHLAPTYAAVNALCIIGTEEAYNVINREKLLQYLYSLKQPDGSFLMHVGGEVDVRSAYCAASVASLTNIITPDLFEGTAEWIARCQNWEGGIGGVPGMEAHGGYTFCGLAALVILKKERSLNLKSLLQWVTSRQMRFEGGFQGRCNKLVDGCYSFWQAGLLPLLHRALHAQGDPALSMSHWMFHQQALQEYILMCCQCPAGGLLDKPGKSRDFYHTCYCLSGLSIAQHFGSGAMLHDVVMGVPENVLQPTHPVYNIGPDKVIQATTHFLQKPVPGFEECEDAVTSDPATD
Description: Inhibition of farnesyltransferase (3H-farnesyldiphosphate / H-Ras filter assay). The format is biochemical. Particulars: test compound at 10^−7 M; 3H-farnesyldiphosphate 0.6 μM, H-Ras 5.0 μM, 37° C., 30 minutes. The text has this: The ability of the compounds of the present invention to inhibit farnesyltransferase can be measured according to the method described in J. Biol. Chem., 266: 14603 (1991) or J. Biol. Chem., 270:660-664 (1995). Procedures for determination of the inhibition of farnesylation of the oncogene protein Ras are described in J. Biol. Chem., 266:15575-15578 (1991) and U.S. Pat. No. 5,245,061. Inhibition of rat brain farnesyltransferase can also be measured in vitro using an Amersham Life Science commercial scintillation proximity assay kit and substituting a biotin-K Ras B fragment (0.1 μM final concentration) for the biotin-lamin substrate provided by Amersham. The enzyme can be purified according to Cell, 62: 81-88 (1990), utilizing steps one, two, and three. […] The percent inhibition of the farnesylation caused by the compounds of the present invention (at 10^−6 M) compared to an uninhibited control sample can be evaluated in the same Amersham test system.
The mixture was brought to 37° C., treated with enzyme, incubated for 30 minutes, treated with 1 M HCl/ethanol (1 mL) to stop the reaction, stirred for 15 minutes at room temperature, diluted with ethanol (2 mL), filtered through a 2.5 cm glass microfiber filter (Whatman) with ethanol rinses (4×2 mL). The glass transferred to a scintillation vial and treated with scintillation fluid (5 mL). The radioisotope retained on the glass fiber filter was counted and reflected the activity of the enzyme.
Take `Cn1cncc1C(OCc1ccc(Cl)cc1-c1cccc(Cl)c1Cl)c1ccc(C#N)cc1` (stereo not shown) [Example 25, 4-((1-methyl-1H-imidazol-5-yl)((2′, 3′,5-trichloro(1,1′-biphenyl)-2-yl)methoxy)methyl)benzonitrile]: 0.1 µM produced 87% inhibition.
For the molecule `Cn1cncc1C(OCc1ccc(Cl)cc1-c1cc(Cl)cc(Cl)c1)c1ccc(C#N)cc1` (stereo not shown) [Example 27, 4-((1-methyl-1H-imidazol-5-yl)((3′,5,5′-trichloro(1,1′-biphenyl)-2-yl)methoxy)methyl)benzonitrile], the inhibition at 0.1 µM turned out to be 47%.
The value for `Cn1cncc1C(OCc1ccc(Cl)cc1-c1ccc(Cl)c(Cl)c1)c1ccc(C#N)cc1` (stereo not shown) [Example 28, 4-((1-methyl-1H-imidazol-5-yl)((3′,4′,5-trichloro(1,1′-biphenyl)-2-yl)methoxy)methyl)benzonitrile] was over 85%.
For the molecule `Cn1cncc1C(OCc1ccc(Cl)cc1-c1ccc(C=O)s1)c1ccc(C#N)cc1` (stereo not shown) [Example 29, 4-(((4-chloro-2-(5-formyl-2-thienyl)benzyl)oxy)(1-methyl-1H-imidazol-5-yl)methyl)benzonitrile], testing at 0.1 µM gave an inhibition of 92%.
The molecule `Cn1cncc1C(OCc1ccc(Cl)cc1-c1cccc(C=O)c1)c1ccc(C#N)cc1` (stereo not shown) [Example 30, 4-(((5-chloro-3′-formyl(1,1′-biphenyl)-2-yl)methoxy)(1-methyl-1H-imidazol-5-yl)methyl)benzonitrile] came in with an inhibition at 0.1 µM of 92%.
Molecule `CCOc1cccc(-c2cc(C#N)ccc2COC(c2ccc(C#N)cc2)c2cncn2C)c1` (stereo not shown) [Example 32, 6-(((4-cyanophenyl)(1-methyl-1H-imidazol-5-yl)methoxy)methyl)-3′-ethoxy(1,1′-biphenyl)-3-carbonitrile] registered an inhibition at 0.1 µM of over 98%.
Under `Cn1cncc1C(OCc1ccc(C#N)cc1-c1ccc2c(c1)OCO2)c1ccc(C#N)cc1` (stereo not shown) [Example 33, 3-(1,3-benzodioxol-5-yl)-4-(((4-cyanophenyl)(1-methyl-1H-imidazol-5-yl)methoxy)methyl)benzonitrile] stands over 98%; under `Cn1cncc1C(OCc1ccc(C#N)cc1-c1cccc(Cl)c1)c1ccc(C#N)cc1` (stereo not shown) [Example 34, 3′-chloro-6-(((4-cyanophenyl)(1-methyl-1H-imidazol-5-yl)methoxy)methyl)(1,1′-biphenyl)-3-carbonitrile], over 97%.
Under `Cn1cncc1C(OCc1ccc(Cl)nc1-c1cccc(Cl)c1)c1ccc(C#N)cc1` (stereo not shown) [Example 35, 4-(((6-chloro-2-(3-chlorophenyl)-3-pyridinyl)methoxy)(1-methyl-1H-imidazol-5-yl)methyl)benzonitrile] stands 96%; under `Cc1ccc(COC(c2ccc(C#N)cc2)c2cncn2C)c(-c2cccc(Cl)c2)n1` (stereo not shown) [Example 36, 4-(((2-(3-chlorophenyl)-6-methyl-3-pyridinyl)methoxy)(1-methyl-1H-imidazol-5-yl)methyl)benzonitrile], 70%; under `Cn1cncc1C(O)(C#Cc1ccc(Cl)cc1-c1cccc(Cl)c1)c1ccc(C#N)cc1` (stereo not shown) [Example 37, 4-(3-(3′,5-dichloro(1,1′-biphenyl)-2-yl)-1-hydroxy-1-(1-methyl-1H-imidazol-5-yl)-2-propynyl)benzonitrile], over 96%.
Under `Cn1cncc1C(OCc1cnc(F)cc1-c1cccc(Cl)c1)c1ccc(C#N)cc1` (stereo not shown) [Example 38, 4-(((4-(3-chlorophenyl)-6-fluoro-3-pyridinyl)methoxy)(1-methyl-1H-imidazol-5-yl)methyl)benzonitrile] stands 80%.
Take `COc1cc(-c2cccc(Cl)c2)c(COC(c2ccc(C#N)cc2)c2cncn2C)cn1` (stereo not shown) [Example 39, 4-(((4-(3-chlorophenyl)-6-methoxy-3-pyridinyl)methoxy)(1-methyl-1H-imidazol-5-yl)methyl)benzonitrile]: the inhibition at 0.1 µM was 74%.

The term inhibition denotes the percentage by which the read-out fell short of the control.
